The record followed here is ChEMBL document CHEMBL5634144, “Design, synthesis and biological evaluation of novel DCLK1 inhibitor containing purine skeleton for the treatment of pancreatic cancer” (Eur J Med Chem, 2023).

The target of test [1] is T1, Serine/threonine-protein kinase DCLK1 (Homo sapiens, UniProt O15075).
T1 sequence (O15075 whole entry): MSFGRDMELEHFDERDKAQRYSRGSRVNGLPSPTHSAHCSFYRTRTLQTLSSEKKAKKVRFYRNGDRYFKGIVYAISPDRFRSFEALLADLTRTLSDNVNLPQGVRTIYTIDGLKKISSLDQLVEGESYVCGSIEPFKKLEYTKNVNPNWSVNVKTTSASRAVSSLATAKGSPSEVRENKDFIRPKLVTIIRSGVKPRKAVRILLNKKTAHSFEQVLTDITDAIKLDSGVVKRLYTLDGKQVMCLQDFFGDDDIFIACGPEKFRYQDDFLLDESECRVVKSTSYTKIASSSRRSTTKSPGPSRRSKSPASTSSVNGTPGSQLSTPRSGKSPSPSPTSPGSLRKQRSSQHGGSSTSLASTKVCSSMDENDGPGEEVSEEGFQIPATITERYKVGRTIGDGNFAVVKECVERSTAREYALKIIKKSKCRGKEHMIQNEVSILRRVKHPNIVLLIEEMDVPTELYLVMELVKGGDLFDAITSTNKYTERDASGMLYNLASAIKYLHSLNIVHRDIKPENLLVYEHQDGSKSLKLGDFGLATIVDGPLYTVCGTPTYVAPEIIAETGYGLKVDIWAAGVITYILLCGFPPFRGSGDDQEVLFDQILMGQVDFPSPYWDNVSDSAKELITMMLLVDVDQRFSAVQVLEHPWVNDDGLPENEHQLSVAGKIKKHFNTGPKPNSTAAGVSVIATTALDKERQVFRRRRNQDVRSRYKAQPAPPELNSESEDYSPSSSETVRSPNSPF
Description: Inhibition of DCLK1 (unknown origin) preincubated for 10 mins followed by substrate/ATP addition measured after 60 mins by mobility shift assay.

Test [2] addresses T1, Serine/threonine-protein kinase DCLK1. Description: Inhibition of DCLK1 (unknown origin) in presence of 33P-ATP.
The test system of test [3] is SW1990. Description: Antiproliferative activity against human SW1990 cells assessed as inhibition cell proliferation incubated for 6 days by MTT assay. In kind it is functional, cell-based. The conditions noted are these: SW1990, 144 h. (In general: Formazan colour is commonly taken as a measure of viable cells.)
The test system of test [4] is SW1990. Kind of test: Induction of cell cycle arrest at G2/M phase in human SW1990 cells at 10 uM incubated for 6 days by PI staining based flow cytometry (reference value: 29.15 %). The conditions noted are these: time 6 day. It is filed as functional.
In test [5] the test system is SW1990. Kind of test: Inhibition of cell migration in human SW1990 cells at 10 uM by transwell assay. It is filed as functional, cell-based.
The subject of test [6] is SW1990. Kind of test: Induction of cell cycle arrest at S phase in human SW1990 cells at 10 uM incubated for 6 days by PI staining based flow cytometry (reference value: 21.20 %). Particulars: time 6 day. In kind it is functional.
Test [7] has as its system CAKI-1. Kind of test: Antiproliferative activity against human CAKI-1 cells assessed as inhibition cell proliferation incubated for 6 days by MTT assay. In kind it is functional, cell-based. The conditions noted are these: CAKI-1, 144 h.
Test [8] deals with SW1990. Description: Induction of apoptosis in human SW1990 cells assessed as necrotic cells at 10 uM incubated for 6 days by Annexin V/PI staining based flow cytometry (reference value: 0.50 %). It is filed as functional. Particulars: time 6 day.
Test [9] concerns SW1990. Kind of test: Induction of apoptosis in human SW1990 cells assessed as early apoptotic cells at 10 uM incubated for 6 days by Annexin V/PI staining based flow cytometry (reference value: 4.55 %). In kind it is functional. The conditions noted are these: time 6 day. In general terms: A flow cytometer gives signals particle by particle.
The subject of test [10] is SW1990. Description: Antitumor activity against human SW1990 cells xenografted in BALB/c nude mouse model assessed as tumor growth inhibition at 60 mg/kg, ip for 21 days consecutively relative to control. In kind it is functional. The conditions noted are these: SW1990, 504 h, time 21 day, read-out: TGI. (In general: A xenograft is tissue or cells of one species grown in another, often human tumour cells in immunodeficient mice.)

The test system of test [11] is SW1990. Kind of test: Induction of apoptosis in human SW1990 cells assessed as late apoptotic cells at 10 uM incubated for 6 days by Annexin V/PI staining based flow cytometry (reference value: 2.01 %). The conditions noted are these: time 6 day. It is filed as functional.
Test [12] concerns SW1990. Description: Induction of apoptosis in human SW1990 cells assessed as viable cells at 10 uM incubated for 6 days by Annexin V/PI staining based flow cytometry (reference value: 92.93 %). The conditions noted are these: SW1990, 144 h, time 6 day, read-out: Activity. It is filed as functional.
The subject of test [13] is SW1990. Description: Induction of cell cycle arrest at G0/G1 phase in human SW1990 cells at 10 uM incubated for 6 days by PI staining based flow cytometry (reference value: 49.65 %). In kind it is functional. The conditions noted are these: time 6 day.
Test [14] has as its system SW1990. Description: Inhibition of cell invasion in human SW1990 cells at 10 uM by transwell assay. In kind it is functional, cell-based.
Test [15] deals with HCT-116. Description: Antiproliferative activity against human HCT-116 cells assessed as inhibition cell proliferation incubated for 6 days by MTT assay. It is filed as functional, cell-based. The conditions noted are these: HCT-116, 144 h.

Active and inactive are the calls of the source. No cut-off for these calls is given here.

One may read the IC50 as the midpoint of a concentration-inhibition curve. On to `COc1ccccc1Nc1nc(Nc2ccccc2S(=O)(=O)C(C)C)c2nc[nH]c2n1`, for which the IC50 in test [1] is 0.171 µM.
As for `COc1cc(N2CCN(C)CC2)ccc1Nc1ncc2c(n1)N(C)c1ccccc1C(=O)N2CC(F)(F)F`, the IC50 in [2] turned out to be 0.0572 µM; in [3] it was 14 µM; in [7], 12.2 µM; in test [1] it was 0.0379 µM; in test [15] it was 6.2 µM. Further, the Activity came out at 21.75% in test [4]; 16.89% in test [6]; 8.99% in test [8]; 18.23% in test [9]; 12.13% in [11]; 61.36% in [13]. For the same molecule, the inhibition entry in test [5] and in test [14] was “Active” throughout. Further, the inhibition in vivo at 60 mg/kg in test [10] came to 24.8%. Moreover, the viability at 10 µM in test [12] stood at 60.6%.
